# Assays:
# [1] = tested on: hepatic lipid accumulation; settings: 25 mg icariin/kg diet; corresponding to 4 mg/kg body weight/day; previous published studies; cited from earlier work
# hepatic steatosis [2] = test: Liver weight after six weeks treatment in chronic high fat diet mice; type: in vivo, C57Bl/6 mice; settings: therapeutic metformin alone 1.5 g/kg diet
# Excerpt: (§1) Chronic high fat diet was used in C57Bl/6 mice as an experimental model of hepatic steatosis. Male C57/BL6 mice were either maintained on standard low-fat diet (control; LFD; 10% energy from fat) or placed on a high fat (HFD; 60% energy from fat, Research Diets #D12492, Research Diets, Inc, New Brunswick, N.J.) at six weeks of age to induce obesity and fatty infiltration of the liver. […] Animals were then randomized to treatments for an additional six weeks, with 10 animals per group, as specified in the following examples.
# (§2) In this study, the effects of metformin alone (therapeutic dose), subtherapeutic metformin alone, subtherapeutic leucine, and various combinations of leucine, metformin, and resveratrol on liver weight and hepatic lipid accumulation were assessed. The 1.5 g/kg diet of metformin corresponds to a therapeutically effective dose of metformin in humans. […] Likewise, the 24 g/kg dose of leucine represents a sub-therapeutic dose that was predicted to exert no significant independent effects on liver mass or hepatic steatosis. Following induction of hepatic steatosis as described in Example 1, animals were treated according to the following treatment groups as depicted in Table 21:
# (§3) In this study, the effects of metformin alone (therapeutic dose) vs. combination therapy with sub-therapeutic amounts of metformin and leucine on liver weight and hepatic lipid accumulation were assessed. Following induction of hepatic steatosis as described in Example 1, animals were treated for six weeks according to the following treatment groups as depicted in Table 22:
# hepatic steatosis [3] = test: Histological analysis of hepatic lipid accumulation in chronic high fat diet mice; type: in vivo, C57Bl/6 mice; settings: HFD mice, six weeks
# Excerpt: as §1, §2, §3
# hepatic steatosis [4] = test: Prophylactic treatment concurrent with high fat diet: liver mass and hepatic lipid accumulation; type: in vivo, C57Bl/6 mice; settings: treatment and HFD started same day, six weeks, metformin alone 1.5 g/kg diet, with or without resveratrol 12.5 mg/kg diet
# Protocol: In this study, the prophylactic effects of metformin alone, and various combinations of metformin, leucine, and resveratrol on liver mass and hepatic steatosis are assessed. C57Bl/6 mice are assigned to the following experimental groups as depicted in Table 25: Drug treatments and high fat diet feeding (as described in Example 1) are initiated on the same day and are carried out for six weeks. The effects of the treatments and diet on liver mass and hepatic lipid accumulation are assessed as described in the preceding examples. […] In this study, the prophylactic effects of metformin alone, and various combinations of metformin, HMB, and resveratrol on liver mass and hepatic steatosis are assessed. C57Bl/6 mice are assigned to the following experimental groups as depicted in Table 26: Drug treatments and high fat diet feeding (as described in Example 1) are initiated on the same day and are carried out for six weeks. The effects of the treatments and diet on liver mass and hepatic lipid accumulation are assessed as described in the preceding examples. […] In this study, the prophylactic effects of sub-therapeutic leucine alone, and co-administration of leucine and the PDE5-specific inhibitor icariin on liver mass and hepatic steatosis are assessed. […] The effects of the treatments and diet on liver mass and hepatic lipid accumulation are assessed as described in the preceding examples.
# liver triglycerides = settings: Example 3; HFD mice, six weeks; therapeutic metformin alone 1.5 g/kg diet
# Excerpt: as §1, §3
Compound,effect on liver mass or hepatic lipid accumulation [1],"effect on liver weight (hepatic steatosis [2]; Example 2, HFD mice, leucine 24 g/kg diet, resveratrol 12.5 mg/kg diet)","effect on liver weight (hepatic steatosis [2]; Example 3, HFD mice, p<0.02 vs. HFD, n.s. compared to LFD)","effect on liver weight (hepatic steatosis [2]; Example 4, HFD mice, p<0.03)","hepatic steatosis (histological analysis) (hepatic steatosis [3]; Example 2, metformin alone 1.5 g/kg diet, leucine 24 g/kg diet, resveratrol 12.5 mg/kg diet, combination with sub-therapeutic metformin)","hepatic steatosis (histological analysis) (hepatic steatosis [3]; Example 3, single agents at 'therapeutic dosages' (metformin 1.5 g/kg diet))","hepatic steatosis (histological analysis) (hepatic steatosis [3]; Example 4, therapeutic metformin alone 1.5 g/kg diet)","HFD-induced increase in liver mass and hepatic lipid accumulation (prophylactic) (hepatic steatosis [4]; Example 6, leucine 24 g/kg diet + metformin 0.15-0.50 g/kg diet)","HFD-induced increase in liver mass and hepatic lipid accumulation (prophylactic) (hepatic steatosis [4]; Example 7, HMB (CaHMB, 2 g/kg diet) + metformin 0.15-0.50 g/kg diet)",effect on liver triglycerides (liver triglycerides)
COc1ccc(-c2oc3c(CC=C(C)C)c(O[C@@H]4O[C@H](CO)[C@@H](O)[C@H](O)[C@H]4O)cc(O)c3c(=O)c2O[C@@H]2O[C@@H](C)[C@H](O)[C@@H](O)[C@H]2O)cc1 [icariin],no effect,,,,,,,,,
metformin,,partially reverse the effect of high fat diet on liver weight,reversed the effect of high fat diet on liver weight back to control levels,reversed the effect of high fat diet on liver weight back to control levels,partial reversal of the effects of HFD on hepatic steatosis,partially reversed hepatic steatosis,partially reversed hepatic steatosis,attenuates the HFD-induced increase in liver mass and hepatic lipid accumulation,attenuates the HFD-induced increase in liver mass and hepatic lipid accumulation,partially reversed the effect of high fat diet on liver triglycerides

# Reference: patent publication US9872844B2, “Compositions and methods for the reduction or prevention of hepatic steatosis” (priority 2014, dated 2018)
